Experiment [1] addresses T1, 5-LOX (Homo sapiens, UniProt P09917).
T1 sequence (P09917 1-674): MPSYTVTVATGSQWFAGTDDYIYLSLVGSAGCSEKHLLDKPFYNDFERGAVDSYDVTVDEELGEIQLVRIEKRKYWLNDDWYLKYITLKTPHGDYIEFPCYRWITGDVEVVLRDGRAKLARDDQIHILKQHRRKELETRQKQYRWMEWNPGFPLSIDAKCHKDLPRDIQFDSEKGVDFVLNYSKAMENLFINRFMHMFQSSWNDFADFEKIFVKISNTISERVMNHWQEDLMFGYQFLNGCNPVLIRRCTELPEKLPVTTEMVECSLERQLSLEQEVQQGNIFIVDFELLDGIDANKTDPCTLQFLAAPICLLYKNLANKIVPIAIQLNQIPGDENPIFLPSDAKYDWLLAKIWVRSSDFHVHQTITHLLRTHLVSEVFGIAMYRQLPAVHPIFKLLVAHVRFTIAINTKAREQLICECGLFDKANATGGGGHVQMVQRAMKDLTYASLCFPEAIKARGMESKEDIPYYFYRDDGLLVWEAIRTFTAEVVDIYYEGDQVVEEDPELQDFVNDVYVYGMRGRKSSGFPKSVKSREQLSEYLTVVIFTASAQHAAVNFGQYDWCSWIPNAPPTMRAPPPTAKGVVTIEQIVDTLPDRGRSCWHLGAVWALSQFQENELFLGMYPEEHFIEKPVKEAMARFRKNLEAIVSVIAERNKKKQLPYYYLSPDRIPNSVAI
As to the kind of experiment: Inhibition assay with recombinant 5-LOX. The following applies: 20 µM AA, 2 mM CaCl2. Set-up: made in house; host or cells: Escherichia coli BL21. The class given is biochemical. The protocol: Escherichia coli BL21 cells were transformed with the pT3-5-LO vector and human recombinant 5-LOX was expressed overnight at 30 °C as previously described. […] The supernatant was loaded on an ATP-agarose column and washed with 50 mM phosphate buffer (PB) containing 1 mM EDTA. Protein fractions were eluted with PB supplemented with 1 mM EDTA and 20 mM ATP. Aliquots of semi-purified 5-LOX were diluted with PBS containing 1 mM EDTA and used immediately in incubations.
Aliquots of 5-LOX (0.5 μg) were pre-incubated with test compounds or a vehicle (0.1%, v/v) for 10 min at 4 °C. […] The reaction was stopped after 10 min by addition of 1 vol of ice-cold methanol. Formed metabolites, i.e., LTB4, trans- and epi-trans-LTB4, and 5S-HETE, were analyzed with reverse-phase HPLC using a C18 RP Radial PAK column (Waters) as described previously.

For experiment [2], the target named is T1, 5-LOX. Description: 5-LOX product formation from intact PMNs: 5S-HETE (cellular activity of 5-LOX). Set-up: stimulated intact polymorphonuclear neutrophils (PMNs); endogenous in cells; host or cells: human primary polymorphonuclear neutrophils (PMNs) from peripheral blood. The note with it: for inhibitory effect on the 5-LOX activity (5S-HETE) in PMNs with exogenous AA: 0.5 µM inhibitor, 0–20 µM AA. The class given is cell-based. The protocol:
Human primary leukocytes were isolated from peripheral blood of healthy adult volunteers provided by the Institute of Transfusion Medicine at the University Hospital Greifswald as described before. All methods were performed in accordance with the Declaration of Helsinki. In brief, erythrocytes were removed by dextran sedimentation and leukocytes were separated by the density gradient centrifugation on a lymphocyte separation medium (Histopaque®-1077, Merck, Darmstadt, Germany). The remaining erythrocytes were removed by hypotonic lysis using water, and resulting polymorphonuclear neutrophils (PMNs) were resuspended in PBS containing 0.1% (w/v) glucose (PG buffer) or PG buffer with 1 mM CaCl2 (PGC buffer) as indicated. Resulting peripheral blood mononuclear cells (PBMC), including monocytes, were seeded in the RPMI 1640 medium supplemented with 10% (v/v) FCS, 100 U/mL penicillin, 100 µg/mL streptomycin and 2 mM L-glutamine in cell culture flasks (Greiner Bio-one, Frickenhausen, Germany) for 1.5 h at 37 °C and 5% CO2. Adherent monocytes were washed twice with PBS and were finally resuspended in the RPMI 1640 medium as described before.
PMNs (5 × 10^6 cells/mL) were diluted in PGC buffer and pre-incubated with the vehicle (0.1%; v/v) or compounds for 10 min at 37 °C prior to the stimulation with 2.5 µM A23187. After 10 min at 37 °C, treatments were stopped on ice with an equal volume of ice-cold methanol. Next, 530 µL acidified PBS containing 200 ng PGB1 as an internal standard were added to the sample followed by the solid phase extraction with on a RP18 column. […] Formed 5-LOX metabolites were analyzed as described previously.

Setting [3] is: read-out: IC50 with recombinant human 5-LOX.
The mark [4] stands for this setting: A23187-activated intact PMNs, 5S-HETE formation, read-out: IC50 on the 5-LOX activity (5S-HETE) in PMNs.

Three molecules from article PMC10145651, “Modulation of the 5-Lipoxygenase Pathway by Chalcogen-Containing Inhibitors of Leukotriene A4 Hydrolase” (International Journal of Molecular Sciences, 2023) can be followed below.

The structures appear in SMILES notation. pIC50: −log10 of the molar value. Values joined by “and” are separate entries in the source; they are usually repeats but may differ in a detail not shown here. Identical values can stand only once.

In the case of `Nc1nc(-c2ccc(Cc3ccccc3)cc2)cs1` [ARM1, 4-(4-benzylphenyl) thiazol-2-amine, reference compound], the negative-log IC50 (pIC50) (as a rule, −log10 of the IC50, conventionally taken in molar units) in experiment [1] (setting [3]) was 5.17 and ~5.22; in experiment [2] (setting [4]) it was 5.77.

As for `Nc1nc(-c2ccc(Cc3ccccc3)cc2)co1` [TTO, 4-(4-benzylphenyl) oxazol-2-amine], the pIC50 in experiment [1] (setting [3]) was 4.47 and < 4.52; in experiment [2] (setting [4]), 5.64. Moreover, the “inhibitory effect on the 5-LOX activity (5S-HETE) in PMNs with exogenous AA” value in experiment [2] is “did not have any inhibitory effects”.

With `Nc1nc(-c2ccc(Cc3ccccc3)cc2)c[se]1` [TTSe, 4-(4-benzylphenyl) selenazol-2-amine], the negative-log IC50 (pIC50) in experiment [1] (IC50 with recombinant human 5-LOX) is 4.70 and ~4.70. For the same molecule, in experiment [2], the pIC50 is 5.64 and the “inhibitory effect on the 5-LOX activity (5S-HETE) in PMNs with exogenous AA” value is listed as “did not have any inhibitory effects”.
